# Results reported in patent US20260262643A1, “HERBICIDAL BENZOXAZINES” (FMC CORPORATION, priority 2022, published 2026).
# Tests used:
# galium = assay: Test C postemergence; type: in vivo, Galium aparine; details: 125 g ai/ha, postemergence, 10 days; 0 to 100 scale, 0 no effect, 100 complete control
# Outline: (§1)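 Visual injury score, 0–100 (100 = complete control), taken 10 days after treatment relative to untreated controls. Pre: directed spray onto soil over sown seeds. Post: foliar spray at one- to two-leaf stage, 2–10 cm. Solvent/surfactant formulation; loam–sand soil; greenhouse.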
# horseweed = assay: Test C postemergence; type: in vivo, Erigeron canadensis; details: 10 days
# Outline: as §1
# blackgrass [1] = assay: Test C preemergence; type: in vivo, Alopecurus myosuroides; details: 0 to 100 scale (0 no effect, 100 complete control)
# Outline: as §1
# green foxtail [2] = assay: Test C postemergence; type: in vivo, Setaria viridis; details: 10 days
# Outline: as §1
# soybean [3] = assay: Test C preemergence; type: in vivo, Glycine max; details: 0 to 100 scale (0 no effect, 100 complete control)
# Outline: as §1
# soybean [4] = assay: Test C postemergence; type: in vivo, Glycine max; details: 10 days
# Outline: as §1
# ryegrass, Italian [5] = assay: Test C postemergence; type: in vivo, Lolium multiflorum; details: 10 days
# Outline: as §1
# rice = assay: Test D flooded paddy test; type: in vivo, Oryza sativa; details: 250 g ai/ha, applied to paddy water, visual rating after 13 to 14 days, scale 0 to 100 (0 no effect, 100 complete control)
# Outline: (§2)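 Visual ratings from 0, meaning no effect, to 100, meaning complete control, were assigned against untreated controls 13 to 14 days after compounds were added to the floodwater of pots kept 3 cm deep, with plants at the 2-leaf stage.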
# corn [6] = assay: Test C preemergence; type: in vivo, Zea mays; details: 0 to 100 scale (0 no effect, 100 complete control)
# Outline: as §1
# barnyardgrass [7] = assay: Test D flooded paddy test; type: in vivo, Echinochloa crus-galli; details: 250 g ai/ha, applied to paddy water, visual rating after 13 to 14 days, scale 0 to 100 (0 no effect, 100 complete control)
# Outline: as §2
# corn [8] = assay: Test C postemergence; type: in vivo, Zea mays; details: 10 days
# Outline: as §1
# ragweed [9] = assay: Test C postemergence; type: in vivo, Ambrosia artemisiifolia; details: 10 days
# Outline: as §1
# oat, wild [10] = assay: Test C preemergence; type: in vivo, Avena fatua; details: 0 to 100 scale (0 no effect, 100 complete control)
# Outline: as §1
# ragweed [11] = assay: Test C preemergence; type: in vivo, Ambrosia artemisiifolia; details: 0 to 100 scale (0 no effect, 100 complete control)
# Outline: as §1
# pigweed, palmer [12] = assay: Test C postemergence; type: in vivo, Amaranthus palmeri; details: 10 days
# Outline: as §1
# ducksalad = assay: Test D flooded paddy test; type: in vivo, Heteranthera limosa; details: 250 g ai/ha, applied to paddy water, visual rating after 13 to 14 days, scale 0 to 100 (0 no effect, 100 complete control)
# Outline: as §2
# oat, wild [13] = assay: Test C postemergence; type: in vivo, Avena fatua; details: 10 days
# Outline: as §1
# blackgrass [14] = assay: Test C postemergence; type: in vivo, Alopecurus myosuroides; details: 10 days
# Outline: as §1
# kochia [15] = assay: Test C postemergence; type: in vivo, Bassia scoparia; details: 10 days
# Outline: as §1
# kochia [16] = assay: Test C preemergence; type: in vivo, Bassia scoparia; details: 0 to 100 scale (0 no effect, 100 complete control)
# Outline: as §1
# barnyardgrass [17] = assay: Test C postemergence; type: in vivo, Echinochloa crusgalli; details: 10 days
# Outline: as §1
# barnyardgrass [18] = assay: Test C preemergence; type: in vivo, Echinochloa crusgalli; details: 0 to 100 scale (0 no effect, 100 complete control)
# Outline: as §1
# pigweed, palmer [19] = assay: Test C preemergence; type: in vivo, Amaranthus palmeri; details: 0 to 100 scale (0 no effect, 100 complete control)
# Outline: as §1
# sedge, umbrella = assay: Test D flooded paddy test; type: in vivo, Cyperus difformis; details: 250 g ai/ha, applied to paddy water, visual rating after 13 to 14 days, scale 0 to 100 (0 no effect, 100 complete control)
# Outline: as §2
# wheat [20] = assay: Test C preemergence; type: in vivo, Triticum aestivum; details: 0 to 100 scale (0 no effect, 100 complete control)
# Outline: as §1
# ryegrass, Italian [21] = assay: Test C preemergence; type: in vivo, Lolium multiflorum; details: 0 to 100 scale (0 no effect, 100 complete control)
# Outline: as §1
# green foxtail [22] = assay: Test C preemergence; type: in vivo, Setaria viridis; details: 0 to 100 scale (0 no effect, 100 complete control)
# Outline: as §1
# wheat [23] = assay: Test C postemergence; type: in vivo, Triticum aestivum; details: 10 days
# Outline: as §1
# [24] = 125 g ai/ha, postemergence, 0 to 100 scale, 0 no effect, 100 complete control
# [25] = Postemergence, 500 g ai/ha, visual 0 to 100 scale (0 no effect, 100 complete control)
# [26] = Preemergence, 500 g ai/ha, visual rating after 10 days
# [27] = Test C, preemergence, 125 g ai/ha
structure (smiles),measurement,setting,value
Cc1ccc(-n2cnc(C[S+](C)[O-])n2)cc1C(=O)N1C[C@H](C)Oc2c(Cl)cccc21 (stereo partly drawn) [Compound 224],"Plant response rating, Galium",galium,100
same,"Plant response rating, Horseweed",horseweed; [24],30
same,"Plant response rating, Horseweed",horseweed; [25],50
same,"Plant response rating, Blackgrass",blackgrass [1]; [26],70
same,Blackgrass plant response rating,blackgrass [1]; [27],20
same,"Plant response rating, Foxtail, Green",green foxtail [2]; [24],20
same,"Plant response rating, Foxtail, Green",green foxtail [2]; [25],70
same,"Plant response rating, Soybean",soybean [3]; [26],100
same,Soybean plant response rating,soybean [3]; [27],60
same,"Plant response rating, Soybean",soybean [4]; [24],100
same,"Plant response rating, Soybean",soybean [4]; [25],100
same,"Plant response rating, Ryegrass, Italian","ryegrass, Italian [5]; [24]",50
same,"Plant response rating, Ryegrass, Italian","ryegrass, Italian [5]; [25]",100
same,"Plant response rating, Rice (Flood)",rice,15
same,"Plant response rating, Corn",corn [6]; [26],20
same,Corn plant response rating,corn [6]; [27],0
same,"Plant response rating, Barnyardgrass (Flood)",barnyardgrass [7],10
same,"Plant response rating, Corn",corn [8]; [24],50
same,"Plant response rating, Corn",corn [8]; [25],90
same,"Plant response rating, Ragweed",ragweed [9]; [24],50
same,"Plant response rating, Ragweed",ragweed [9]; [25],70
same,"Plant response rating, Oat, Wild","oat, wild [10]; [26]",90
same,"Oat, Wild plant response rating","oat, wild [10]; [27]",30
same,"Plant response rating, Ragweed",ragweed [11]; [26],40
same,Ragweed plant response rating,ragweed [11]; [27],0
same,"Plant response rating, Pigweed, Palmer","pigweed, palmer [12]; [24]",90
same,"Plant response rating, Pigweed, Palmer","pigweed, palmer [12]; [25]",90
same,"Plant response rating, Ducksalad (Flood)",ducksalad,95
same,"Plant response rating, Oat, Wild","oat, wild [13]; [24]",50
same,"Plant response rating, Oat, Wild","oat, wild [13]; [25]",70
same,"Plant response rating, Blackgrass",blackgrass [14]; [24],30
same,"Plant response rating, Blackgrass",blackgrass [14]; [25],70
same,"Plant response rating, Kochia",kochia [15]; [24],90
same,"Plant response rating, Kochia",kochia [15]; [25],90
same,"Plant response rating, Kochia",kochia [16]; [26],70
same,Kochia plant response rating,kochia [16]; [27],40
same,"Plant response rating, Barnyardgrass",barnyardgrass [17]; [24],10
same,"Plant response rating, Barnyardgrass",barnyardgrass [17]; [25],50
same,"Plant response rating, Barnyardgrass",barnyardgrass [18]; [26],90
same,Barnyardgrass plant response rating,barnyardgrass [18]; [27],40
same,"Plant response rating, Pigweed, Palmer","pigweed, palmer [19]; [26]",100
same,"Pigweed, Palmer plant response rating","pigweed, palmer [19]; [27]",90
same,"Plant response rating, Sedge, Umbrella (Flood)","sedge, umbrella",98
same,"Plant response rating, Wheat",wheat [20]; [26],50
same,Wheat plant response rating,wheat [20]; [27],0
same,"Plant response rating, Ryegrass, Italian","ryegrass, Italian [21]; [26]",80
same,"Ryegrass, Italian plant response rating","ryegrass, Italian [21]; [27]",70
same,"Plant response rating, Foxtail, Green",green foxtail [22]; [26],100
same,"Foxtail, Green plant response rating",green foxtail [22]; [27],100
same,"Plant response rating, Wheat",wheat [23]; [24],20
same,"Plant response rating, Wheat",wheat [23]; [25],60
